The values that follow come from PubChem BioAssay AID256 (DTP/NCI, 2004).

In this test the test system is CD2F1 mice, L1210 leukemia ip, survival T/C. Briefly: NCI In Vivo Anticancer Drug Screen. Data for tumor model L1210 Leukemia (intraperitoneal) in CD2F1 (CDF1) mice. The settings on record: higher = longer survival. Put shortly: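 Antitumor effect is scored in animals hosting a serially transplanted tumor. Values compare compound-dosed animals against vehicle-only controls as a simple quotient.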

The mark [1] stands for this setting: endpoint: mean survival time, dose: 100.0 mg/kg/injection, schedule: Q01DX009 (ip), vehicle: saline with Tween-80.
Setting [2] is: endpoint: mean survival time, dose: 100.0 mg/kg/injection, schedule: Q04DX003 (ip), vehicle: saline with Tween-80.
Setting [3] is: endpoint: mean survival time, dose: 200.0 mg/kg/injection, schedule: Q04DX003 (ip), vehicle: saline with Tween-80.
Where [4] appears, read: endpoint: mean survival time, dose: 400.0 mg/kg/injection, schedule: Q04DX003 (ip), vehicle: saline with Tween-80.
The mark [5] stands for this setting: endpoint: mean survival time, dose: 25.0 mg/kg/injection, schedule: Q04DX002 (ip), vehicle: saline with Tween-80.
The mark [6] stands for this setting: endpoint: mean survival time, dose: 50.0 mg/kg/injection, schedule: Q04DX002 (ip), vehicle: saline with Tween-80.
[7] abbreviates: endpoint: mean survival time, dose: 100.0 mg/kg/injection, schedule: Q04DX002 (ip), vehicle: saline with Tween-80.
Setting [8] is: endpoint: mean survival time, dose: 100.0 mg/kg/injection, schedule: Q01DX001 (ip), vehicle: saline.
Where [9] appears, read: endpoint: mean survival time, dose: 200.0 mg/kg/injection, schedule: Q01DX001 (ip), vehicle: saline.
[10] abbreviates: endpoint: mean survival time, dose: 400.0 mg/kg/injection, schedule: Q01DX001 (ip), vehicle: saline.
[11] abbreviates: endpoint: mean survival time, dose: 25.0 mg/kg/injection, schedule: Q01DX009 (ip), vehicle: water.
Setting [12] is: endpoint: mean survival time, dose: 50.0 mg/kg/injection, schedule: Q01DX009 (ip), vehicle: water.
[13] abbreviates: endpoint: mean survival time, dose: 100.0 mg/kg/injection, schedule: Q01DX009 (ip), vehicle: water.
The mark [14] stands for this setting: endpoint: mean survival time, dose: 50.0 mg/kg/injection, schedule: Q01DX009 (ip), vehicle: Klucel (hydroxypropylcellulose) (HPC).
The mark [15] stands for this setting: endpoint: mean survival time, dose: 50.0 mg/kg/injection, schedule: Q01DX009 (ip), vehicle: saline with Tween-80.

Structures are written as SMILES. Where “and” joins values, the source holds several entries; their conditions need not be identical. Equal entries are not always repeated. Toxic doses and inconclusive results are not listed.

For the compound `OCNC(=S)c1c(Cl)cccc1Cl`, the T/C under setting [1] was 98 % of control and the T/C (endpoint: mean survival time, dose: 200.0 mg/kg/injection, schedule: Q01DX009 (ip), vehicle: saline with Tween-80) was 102 % of control.

As to `CC1NC(C(=O)O)Cc2cc(O)c(O)cc21` (centres undefined), the T/C is 102 % of control under setting [2], 98 % of control under setting [3] and 100 % of control under setting [4].

As for `N=c1ccccn1CCO`, the T/C (endpoint: mean survival time, dose: 75.0 mg/kg/injection, schedule: Q01DX001 (ip), vehicle: saline) is 100 % of control and the T/C (endpoint: mean survival time, dose: 150.0 mg/kg/injection, schedule: Q01DX001 (ip), vehicle: saline) is 108 % of control.

`COc1cc([N+](=O)[O-])ccc1NC=O`: the T/C was 103 % of control under setting [5], 103 % of control under setting [6] and 90 % of control under setting [7].

On to `O=C1CCCC/C1=N\Nc1ccccc1`, for which the T/C by setting is: under setting [8], 91 % of control; under setting [9], 89 % of control; under setting [10], 97 % of control.

For `CCCCNc1ccc2nnc(C)n2n1`, the T/C is, setting by setting: (endpoint: median survival time, dose: 50.0 mg/kg/injection, schedule: Q01DX005 (ip), vehicle: DMSO) 100 % of control and 101 % of control; (endpoint: median survival time, dose: 100.0 mg/kg/injection, schedule: Q01DX005 (ip), vehicle: DMSO) 97 % of control and 100 % of control; (endpoint: median survival time, dose: 200.0 mg/kg/injection, schedule: Q01DX005 (ip), vehicle: DMSO) 104 % of control.

Consider `C1CNCCNCCNCCN1`, for which the T/C is 100 % of control (endpoint: mean survival time, dose: 12.5 mg/kg/injection, schedule: Q01DX009 (ip), vehicle: water); 100 % of control under setting [11]; 96 % of control under setting [12]; 94 % of control under setting [13].

In the case of `Cc1nc2[nH]c(=S)[nH]c(=O)c2nc1C`, the T/C is, setting by setting: under setting [2], 97 % of control; under setting [3], 90 % of control; under setting [4], 90 % of control.

Take `Cc1sc2ccccc2[n+]1C`: the T/C runs as follows: (endpoint: mean survival time, dose: 12.5 mg/kg/injection, schedule: Q01DX009 (ip), vehicle: Klucel (hydroxypropylcellulose) (HPC)) 93 % of control; (endpoint: mean survival time, dose: 25.0 mg/kg/injection, schedule: Q01DX009 (ip), vehicle: Klucel (hydroxypropylcellulose) (HPC)) 95 % of control; under setting [14], 87 % of control.

In the case of `CC1CCN=C(CCC2CCCCC2=O)O1` (centres undefined), the T/C is 96 % of control under setting [2], 101 % of control under setting [3] and 96 % of control under setting [4].

For the compound `CCOC(=O)C(O)(CC)CCC(C)C` (centres undefined), the T/C reads like this: under setting [2], 105 % of control; under setting [3], 86 % of control.

For the compound `C[N+]1(C)CCC(=O)CC1`, the T/C under setting [1] is 101 % of control.

With `O=C(O)c1ccc(C(=O)O)c(C(=O)O)c1.[NH-]C1CCCCCC1[NH-].[Pt+2]`, the T/C (endpoint: mean survival time, dose: 3.75 mg/kg/injection, schedule: Q04DX003 (ip), vehicle: sodium bicarbonate) was 159 % of control; the T/C (endpoint: mean survival time, dose: 7.5 mg/kg/injection, schedule: Q04DX003 (ip), vehicle: sodium bicarbonate) is 156 % of control and 250 % of control; the T/C (endpoint: mean survival time, dose: 15.0 mg/kg/injection, schedule: Q04DX003 (ip), vehicle: sodium bicarbonate) was 200 % of control and 219 % of control; the T/C (endpoint: mean survival time, dose: 30.0 mg/kg/injection, schedule: Q04DX003 (ip), vehicle: sodium bicarbonate) was 105 % of control.

Turning to `Cc1cc2ccc(Br)cc2[nH]1`, the T/C (endpoint: mean survival time, dose: 100.0 mg/kg/injection, schedule: Q01DX001 (ip), vehicle: other) is 104 % of control; the T/C (endpoint: mean survival time, dose: 200.0 mg/kg/injection, schedule: Q01DX001 (ip), vehicle: other) is 101 % of control; the T/C (endpoint: mean survival time, dose: 400.0 mg/kg/injection, schedule: Q01DX001 (ip), vehicle: other) is 98 % of control.

As for `Cc1ccc(-c2cc(-c3ccccc3)n(-c3ccccc3)n2)cc1`, the T/C is, setting by setting: under setting [2], 101 % of control; under setting [3], 100 % of control; under setting [4], 95 % of control.

Regarding `CCC[CH2][Sn]1([CH2]CCC)[O]OC(C)(CC)[O]1` (centres undefined), the T/C is, setting by setting: (endpoint: mean survival time, dose: 0.78 mg/kg/injection, schedule: Q01DX009 (ip), vehicle: saline with Tween-80) 95 % of control; (endpoint: mean survival time, dose: 1.56 mg/kg/injection, schedule: Q01DX009 (ip), vehicle: saline with Tween-80) 110 % of control; (endpoint: mean survival time, dose: 3.13 mg/kg/injection, schedule: Q01DX009 (ip), vehicle: saline with Tween-80) 112 % of control.

With `CN(C)/N=C(\CBr)c1ccc(Br)cc1`, the T/C under setting [8] was 103 % of control and the T/C under setting [9] is 100 % of control.

Take `O=C(O)C1C(C(=O)O)C2C3C4C1C1C2C3C41` (centres undefined): the T/C reads like this: under setting [2], 108 % of control; under setting [3], 104 % of control; under setting [4], 98 % of control.

Consider `COc1cc2c(c(OC)c1OC)-c1ccc(SC)c(=O)cc1C(NC(=S)NC1OC(COC(C)=O)C(OC(C)=O)C(OC(C)=O)C1OC(C)=O)CC2` (centres undefined), for which the T/C under setting [14] was 86 % of control; the T/C (endpoint: mean survival time, dose: 100.0 mg/kg/injection, schedule: Q01DX009 (ip), vehicle: Klucel (hydroxypropylcellulose) (HPC)) was 89 % of control; the T/C (endpoint: mean survival time, dose: 200.0 mg/kg/injection, schedule: Q01DX009 (ip), vehicle: Klucel (hydroxypropylcellulose) (HPC)) is 101 % of control.

As to `C=C(COC(C)(C)C)CN(C)C`, the T/C runs as follows: under setting [15], 98 % of control; under setting [1], 104 % of control.

`N#C[C@H](OC1OC(COC2OC(CO)C(O)C(O)C2O)C(O)C(O)C1O)c1ccccc1` (some centres undefined): the T/C by setting is: (endpoint: mean survival time, dose: 25.0 mg/kg/injection, schedule: Q01DX009 (ip), vehicle: saline) 98 % of control; under setting [11], 96 % of control; (endpoint: mean survival time, dose: 50.0 mg/kg/injection, schedule: Q01DX009 (ip), vehicle: saline) 97 % of control; under setting [12], 103 % of control; (endpoint: mean survival time, dose: 100.0 mg/kg/injection, schedule: Q01DX009 (ip), vehicle: saline) 101 % of control; under setting [13], 96 % of control. Moreover, the T/C is, setting by setting: (endpoint: mean survival time, dose: 200.0 mg/kg/injection, schedule: Q01DX009 (ip), vehicle: saline) 104 % of control; (endpoint: mean survival time, dose: 200.0 mg/kg/injection, schedule: Q01DX009 (ip), vehicle: water) 96 % of control; (endpoint: mean survival time, dose: 400.0 mg/kg/injection, schedule: Q01DX009 (ip), vehicle: saline) 98 % of control; (endpoint: mean survival time, dose: 400.0 mg/kg/injection, schedule: Q01DX009 (ip), vehicle: water) 105 % of control; (endpoint: mean survival time, dose: 800.0 mg/kg/injection, schedule: Q01DX009 (ip), vehicle: saline) 107 % of control; (endpoint: mean survival time, dose: 800.0 mg/kg/injection, schedule: Q01DX009 (ip), vehicle: water) 102 % of control.

Consider `[Co+3].[NH-]CC(=O)O.[NH-]CC(=O)O.[NH-]CC(=O)O`, for which the T/C by setting is: under setting [5], 104 % of control and 101 % of control; under setting [6], 104 % of control and 96 % of control; under setting [7], 104 % of control and 106 % of control; (endpoint: mean survival time, dose: 200.0 mg/kg/injection, schedule: Q04DX002 (ip), vehicle: saline with Tween-80) 117 % of control.

As for `CC(O)c1cccc([N+](=O)[O-])c1` (centres undefined), the T/C by setting is: (endpoint: mean survival time, dose: 100.0 mg/kg/injection, schedule: Q01DX001 (ip), vehicle: saline with Tween-80) 93 % of control; (endpoint: mean survival time, dose: 200.0 mg/kg/injection, schedule: Q01DX001 (ip), vehicle: saline with Tween-80) 97 % of control; (endpoint: mean survival time, dose: 400.0 mg/kg/injection, schedule: Q01DX001 (ip), vehicle: saline with Tween-80) 93 % of control.

Consider `COC1OC(C(O)CO)C(O)C(O)C1O` (centres undefined), for which the T/C under setting [8] was 105 % of control; the T/C under setting [2] is 104 % of control; the T/C under setting [9] is 96 % of control; the T/C under setting [3] was 103 % of control; the T/C under setting [10] was 102 % of control; the T/C under setting [4] was 98 % of control.

As to `c1cc2c(c(NC3=NCCN3)c1)CCCC2`, the T/C was 96 % of control (endpoint: mean survival time, dose: 12.5 mg/kg/injection, schedule: Q01DX009 (ip), vehicle: saline with Tween-80); 100 % of control (endpoint: mean survival time, dose: 25.0 mg/kg/injection, schedule: Q01DX009 (ip), vehicle: saline with Tween-80); 111 % of control under setting [15].

Take `O=C(c1ccccc1)c1ccsc1C(=O)O`: the T/C under setting [5] is 96 % of control and the T/C under setting [6] is 96 % of control.

For the compound `CCCCCCCCCCCCCCCCCCOCCOCCOCCOCCO`, the T/C reads like this: under setting [5], 91 % of control; under setting [6], 100 % of control; under setting [7], 94 % of control; (endpoint: mean survival time, dose: 400.0 mg/kg/injection, schedule: Q04DX002 (ip), vehicle: saline with Tween-80) 94 % of control.
